Results taken from US20220226484A1, “THERAPEUTIC PEPTIDES” (COHBAR, INC., priority 2019, published 2022).
Positions of bridges follow the written chain, without caps; N, C: chain ends. Non-standard residues stand in square brackets, D forms with d. Primed or numbered codes have the meaning given here. Chains are numbered I, II in the order given. No end group written: not given here. PEG12′ = not defined here

Tests used:
[1] = tested on: SH-SY5Y Neuroblastoma Cells Exposed to Staurosporine; test: ATP levels in cells exposed to staurosporine; assay type: cell-based, human; conditions: peptide 10 μM with staurosporine, 18-20 hours; <100% cytoprotective, >100% synergistic
Protocol: Peptides were initially prepared as 10 mM stock in DMSO and tested at a final concentration of 10 μM (0.1% DMSO). […] […] CellTiter-Glo® Assay kit was purchased from Promega. SH-SY5Y human neuroblastoma cell line was purchased from American Type Culture Collection (Manassas, Va.) and licensed from Memorial Sloan-Kettering Cancer Center (New York, N.Y.). SH-SY5Y cells were grown in DMEM/F12 medium supplemented with 10% FBS with 100 IU/ml penicillin and 100 μg/ml streptomycin. Cultures were maintained at 37° C. in a humidified atmosphere of 5% CO2/95% air. SH-SY5Y cells were seeded at 30,000 cells per well on 96-well plates. […] ATP levels were determined using a CellTiter-Glo Assay kit (Promega) according to the manufacturer's instructions. Luminescence for each sample well on the plate was measured using a Cytation 3 plate reader (BioTek, Winooski, Vt.). […] A value less than 100% is indicative of a cytoprotective effect, while a value greater than 100% is indicative of a synergistic effect on viability.

[2] = tested on: A172 human brain glioblastoma cell line; test: Caspase 3/7 activity (Caspase-Glo 3/7 Assay); assay type: cell-based; conditions: peptide 10 μM, 18-20 hours, relative to 0.1% DMSO control
Protocol: The effect of the peptides on cell death/survival can be assessed using a caspase-3/7 assay in cultured cells. Peptides were dissolved at 10 mM in DMSO as stock solutions for use at a final concentration of 10 μM. […] Caspase-Glo 3/7 Assay Reagent was purchased from Promega (Madison, Wis.). A172 human brain glioblastoma cell line was purchased from American Type Culture Collection (Manassas, Va.). A172 cells were grown in DMEM supplemented with 10% FBS with 100 IU/ml penicillin and 100 μg/ml streptomycin. Cultures were maintained at 37° C. in a humidified atmosphere of 5% CO2/95% air. A172 cells were seeded at 8,000 cells per well on 96-well plates. […] Caspase 3/7 activity was determined using a Caspase-Glo 3/7 Assay kit (Promega) according to the manufacturer's instructions. Luminescence for each sample well on the plate was measured using a Cytation 3 plate reader (BioTek, Winooski, Vt.). Activity was calculated relative to 0.1% DMSO control.

C2C12 Mouse Myoblasts = test: Glucose utilization; assay type: cell-based; conditions: peptide 10 μM, 18-22 hours, relative to 0.1% DMSO treated control
Protocol: The effect of the peptides on glucose metabolism can be assessed using an assay of glucose utilization in cultured cultured cells such as mouse myoblasts. Peptides were initially prepared as 10 mM stock in DMSO and used at a final concentration of 10 μM (0.1% DMSO). C2C12 mouse myoblast cell line was purchased from American Type Culture Collection (Manassas, Va.). C2C12 cultures were maintained at 37° C. in a humidified atmosphere of 5% CO2/95% air with medium changes every second day. C2C12 cells were grown in DMEM (1 g/L glucose) supplemented with 10% FBS with 100 IU/ml penicillin and 100 μg/ml streptomycin. C2C12 cells were seeded at 7,000 cells per well on 96-well plates and cultured to confluence. Once the cell reached confluence the media was changed to DMEM (1 g/L glucose) supplemented with 2% HS with 100 IU/ml penicillin and 100 μg/ml streptomycin and maintained at 37° C. in a humidified atmosphere of 5% CO2/95% air. 5 days post-induction of differentiation fresh DMEM (1 g/L glucose) supplemented with 2% HS with 100 IU/ml penicillin and 100 μg/ml streptomycin was added to cultures. Cells were maintained at 37° C. in a humidified atmosphere of 5% CO2 and 95% air for 5 hours. After 5 hours test peptides at 10 μM or controls (0.5 mM or 1 mM metformin in 1% DMSO) prepared in fresh differentiation medium were added to cells and the cultures were maintained at 37° C. in a humidified atmosphere of 5% CO2/95% air for 18-22 hours. At the end of the incubation culture media was removed from the cells and the remaining glucose concentration was measured using a Glucose Assay kit (Abcam) according to the manufacturer's instructions, using a Cytation 3 plate reader at 570 nm (BioTek, Winooski, Vt.). Glucose concentrations in the medium were calculated relative to 0.1% DMSO treated control cells. The relative standard deviation of the result for the 0.1% DMSO treated control was <20%. Metformin was used as a positive control for reduction of glucose levels (increased glucose utilization glucose levels for treatment with metformin (1 mM) treatment were <20% of the 0.1% DMSO treated control value. The results are reported in Table 7.

[3] = tested on: Rat primary cortical neurons; test: Neuroprotection against Aβ (1-42) toxicity in cultured neurons; assay type: cell-based; conditions: 24 hours
Protocol: Rat primary cortical neurons were collected and cultured by methods well known in the art (Singer et al., 1999 and Callizot et al., 2013). The cells were seeded at a density of 25,000 per well in 96-well plates precoated with poly-L-lysine and cultured at 37° C. in an air (95%)-CO2 (5%) incubator. The medium was changed every 2 days. The cortical neurons were treated after 11 days of culture. The A13(1-42) was prepared using the procedure described by Callizot et al., 2013 to ensure monomeric peptide. Compounds and the positive control, BDNF (50 ng/ml), were dissolved in culture medium and then pre-incubated with primary cortical neurons for 1 hour before addition of A13(1-42) (20 μM). After 24 hours of treatment, the cell culture supernatant was removed and the cortical neurons were fixed by a cold solution of ethanol (95%) and acetic acid (5%) for 5 min at −20° C. After permeabilization with 0.1% of saponin, cells were incubated for 2 hours with mouse monoclonal antibody anti-microtubule-associated-protein 2 (MAP-2) at a dilution of 1/400 in PBS containing 1% fetal calf serum and 0.1% of saponin to stain cell bodies and neurites.
This antibody was detected with Alexa Fluor 488 goat anti-mouse IgG at the dilution 1/400 in PBS containing 1% FCS, 0.1% saponin, for 1 hour at room temperature. For each condition, images were obtained using ImageXpress (Molecular Devices) with 20× magnification. The total number of cells and extent of neurite network was determined using Custom Module Editor (Molecular Devices).

[4] = tested on: WI-38 cells (human fetal lung fibroblast cells); test: Fibroblast-to-myofibroblast transition assay, pro-collagen I alpha 1 expression; assay type: cell-based; conditions: 10 μM peptide and 5 ng/ml TGF-β, 48 h, cell lysates
Protocol: The effect of the peptides on fibrosis can be assessed in vitro using a fibroblast-to-myofibroblast transition (FMT) assay and monitoring pro-collagen I alpha 1 expression produced by cultured cells such as human fetal lung fibroblast cells. Peptides were initially prepared as 10 mM stock solutions in DMSO or 1 mM stock in H2O and were used at a final concentration of 10 μM (0-0.1% DMSO). Transforming Growth Factor beta (TGF-β) was used as a potent inducer of FMT as measured by increased pro-collagen I alpha 1 expression. Human WI-38 cell line was purchased from American Type Culture Collection (Manassas, Va.). WI-38 cells were seeded in complete medium (DMEM/high glucose (4 g/L)+10% Fetal Bovine Serum+1% penicillin/streptomycin) at 40,000 cells/well on 48-well plates and placed at 37° C. in a humidified atmosphere of 5% CO2/95% air. The next day, the medium was removed, cells were rinsed twice with HBSS, and the medium replaced with Serum Restricted Medium (DMEM/high glucose (4 g/L)+0.2% Fetal Bovine Serum+1% penicillin/streptomycin). The cultures were placed at 37° C. in a humidified atmosphere of 5% CO2/95% air overnight. Following 24 h in Serum Restricted Medium, the medium was removed, and the following was added: fresh Serum Restricted Medium alone (no TGF-β control); fresh Serum Restricted Medium containing 5 ng/ml TGF-β (TGF-β control); or fresh Serum Restricted Medium containing 10 μM peptide and 5 ng/ml TGF-β. Cells were incubated for 48 h at 37° C. in a humidified atmosphere of 5% CO2/95% air, washed twice with cold HBSS and immediately lysed. Lysis and determination of pro-collagen I alpha 1 concentrations in the cell lysates were performed using a Pro-Collagen I Alpha 1 ELISA kit (Abcam; Cambridge, Mass.) according to the manufacturer's instructions; absorbance was measured using a Cytation 3 plate reader at 450 nm (BioTek, Winooski, Vt.).

Substance | Percent of ATP Reduction Induced by Control [1] | Caspase 3/7 Activity, Percent of Control Activity [2] | Glucose Utilization (glucose in medium), Percent of Untreated Control (C2C12 Mouse Myoblasts) | Percent Protection of Neuronal Network ([3]; Aβ (1-42) 20 μM + peptide 100 nM) | Percent Protection of Neuronal Network ([3]; Aβ (1-42) 20 μM + peptide 10 uM) | Procollagen I Alpha 1 Mean (SEM) [4]
MRVIRMCLGVGLLGDLAG [SEQ ID NO: 2] | 104.8% | 109.3% | 110.9% |  |  | 
RVIRMCLGVGLLGDL(dA)G (RVIRMCLGVGLLGDL[dA]G) [SEQ ID NO: 4] | 104.1% | 112.4% | 107.3% |  |  | 
RVIRMCLGVGLLGDLAG [SEQ ID NO: 3] | 108.4% | 109.4% | 108.0% | 80% | 81% | 
RVIRMCLGVGLLGDLAGK{PEG12} (chain 1 RVIRMCLGVGLLGDLAGK(PEG12′); chain 2 RVIRMCLGVGLLGDLAGK(PEG12′); disulfide I:6-II:6) [SEQ ID NO: 28] |  |  |  |  |  | 1830 (507) pg/mL
RVIRMCLNVGLLGEL(dA)G [SEQ ID NO: 5] (RVIRMCLNVGLLGEL[dA]G) | 108.0% | 107.0% | 111.2% |  |  | 4200 (597) pg/mL
RVIRMCLNVGNLGEL(dA)G (RVIRMCLNVGNLGEL[dA]G) [SEQ ID NO: 10] |  |  |  |  |  | 4460 (235) pg/mL
